Reference: patent US20220267365A1, “NOVEL PHOSPHATE ESTER COMPOUND HAVING PYRROLOPYRIMIDINE SKELETON OR PHARMACEUTICALLY ACCEPTABLE SALT THEREOF” (TAIHO PHARMACEUTICAL CO., LTD., priority 2019, published 2022)
Where a name gives a salt, the structure may show the parent alone. Values belong to the molecule of their own block, whether it stands above or below them.

Legend:
[1] = tested on: human brain tumor cell line (U-87 MG); experiment: Test Example 6: antitumor effect and toxicity in mouse, subcutaneous U-87 MG transplant; format: in vivo, BALB/cA Jcl-nu/nu mice
Procedure: The day of grouping mice was determined Day 0.
TV (mm^3)=(major axis×minor axis^2)/2
RTV=(TV on evaluation date)/(TV on Day 0)
IR (%)=(1−(RTV of administration group on evaluation date)/(RTV of control group on evaluation date))×100

[2] = tested on: human hematopoietic organ tumor cell line (MV-4-11); experiment: Test Example 7: antitumor effect and toxicity in mouse, subcutaneous MV-4-11 transplant
Procedure: A human hematopoietic organ tumor cell line (MV-4-11) was subcutaneously transplanted in the right chest of each of BALB/cA Jcl-nu/nu mice. After tumor transplantation, the major axes (mm) and minor axes (mm) of the tumors were measured and tumor volumes (TV) were calculated. The mice were assigned to individual groups such that the average TVs of the groups became equal. The day of grouping mice was determined Day 0.
Thereafter, administration was continued as long as a weight loss was acceptable and then evaluated.
The tumor volumes (TV) and body weights (BW) of individual groups were evaluated. As the indexes of antitumor effect and toxicity, the relative tumor volume (RTV) to that of Day 0 and a body weight change (BWC) relative to that of Day 0 were obtained, respectively, in accordance with the following equations and plotted on a chart.
BWC (%)=(BW on evaluation date−BW on Day 0)/(BW on Day 0)×100
T/C (%)=(Number of blood cell component in administration group/Number of blood cell component in control group)×100

[3] = Test Example 1: presence of prodrug in mouse and absorbency, oral administration, plasma AUC; format: in vivo, mice (Balb/cA, male); conditions: for presence of prodrug in mouse (conversion into active compound): oral administration
Procedure: The dosage amounts of the compound of Comparative Example 1, a triethylamine salt of the compound of Example 1, the compound of Comparative Example 2 and the compound of Example 2 were set to be 50 mg/10 mL/kg, 62 mg/10 mL/kg (50 mg/10 mL/kg in terms of free compound), 3 mg/10 mL/kg, and 3.6 mg/10 mL/kg, respectively. Solutions for administration were prepared with a 0.5% aqueous solution of HPMC so as to satisfy the above dosage amounts. Note that a solution for administration of a triethylamine salt of the compound of Example 1 was prepared by adding 1 molar equivalent of triethylamine.
The dosage amounts of the compound of Comparative Example 3 and the compound of Example 5 were set to be 3 mg/10 mL/kg and 3.8 mg/10 mL/kg, respectively. Solutions thereof for administration were prepared with a 0.5% aqueous solution of HPMC so as to satisfy the above dosage amounts.
Note that, the “mg/10 mL/kg” means as follows: for example “50 mg/10 mL/kg” means that 50 mg of a test compound per body-weight (1 kg) of a mouse was dispersed or dissolved in a solution (10 mL) for administering a compound. The same applies hereinafter.
The solutions for administration prepared above were orally administered to mice (Balb/cA, male) not fasted each by use of an oral administration sonde.
The mice were anesthetized with isoflurane 0.5, 1, 2, 4 and 6 hours after administration and blood was taken from the facial vein by use of a specific needle (animal lancet) and a heparin-coated hematocrit tube.
The blood sampled was immediately centrifuged (13000 rpm, 2 minutes, 4° C.) to prepare the plasma samples. After proteins were removed from the plasma samples, the concentrations of the test compound in the plasma samples were measured by LC/MS/MS.
The value of “area under the curve” (AUC) of drug concentration in blood versus time was calculated using analysis software such as Phoenix (registered trademark) WinNonlin (registered trademark).
More specifically, the results of the compounds of Comparative Examples 1 and 2 and triethylamine salt of Example 1, and the compound of Example 2 are shown in Table 2; whereas, the results of the compounds of Comparative Example 3 and Example 5 are shown in Table 3. In Table 2 and Table 3, “Comparative Example 1”, “Comparative Example 2”, and “Comparative Example 3” represent the “compound (Br form) of Comparative Example 1”, the “compound (I form) of Comparative Example 2” and the “compound (Cl form) of Comparative Example 3”, respectively.

[4] = Test Example 2: presence of prodrug in mouse and absorbency, caudal vein administration, plasma AUC; format: in vivo, mice (Balb/cA, male); conditions: for presence of prodrug in mouse (conversion into active compound): caudal vein administration of disodium salts; for AUC(0-t): male, Balb/cA, caudal vein, physiological saline, mouse plasma, unchanged prodrug
Procedure: The dosage amounts of a disodium salt of the compound of Example 1, a disodium salt of the compound of Example 2, a disodium salt of the compound of Example 3, a disodium salt of the compound of Example 4 and a disodium salt of the compound of Example 5 were set to be 26 mg/5 mL/kg, 12 mg/5 mL/kg, 12 mg/5 mL/kg, 12 mg/5 mL/kg, and 11 mg/5 mL/kg, respectively. Solutions for administration were prepared by dissolving the compounds in physiological saline so as to satisfy the above dosage amounts, respectively. Note that solutions for administration of disodium salts of the compounds of Examples 1 to 4 were prepared by adding 2 molar equivalents of sodium hydroxide.
Mice (Balb/cA, male) not fasted were each immobilized on a specific fixed table, sterilized with ethanol for disinfection. Each of the solutions prepared above was administered through the caudal vein by use of a syringe and a needle.
Blood was taken from the facial vein, 0.25, 0.5, 1, 2, 4 and 6 hours after administration by use of a specific needle (animal lancet) and a heparin-coated hematocrit tube.
The blood sampled were immediately centrifuged (13000 rpm, 2 minutes, 4° C.) to prepare the plasma samples. After proteins were removed from the plasma samples, the concentrations of the test compound in the plasma samples were measured by LC/MS/MS.
The value of AUC was calculated using analysis software such as Phoenix (registered trademark), WinNonlin (registered trademark).
The AUC (AUC 0-6 hr) values obtained in the time period of 0 to 6 hours after administration of sodium salts of the compounds of Example 1 to 4 are shown in Table 4; and the AUC (AUC 0-6 hr) values obtained in the time period of 0 to 6 hours after administration of a sodium salt of the compound of Example 5 are shown in Table 5. In Table 4 and Table 5, “Comparative Example 1”, “Comparative Example 2” and “Comparative Example 3” represent the “compound (Br form) of Comparative Example 1”, the “compound (I form) of Comparative Example 2”, and the “compound (Cl form) of Comparative Example 3”, respectively.

H1650 = experiment: Test Example 4 growth suppression activity, CellTiter-Glo; format: cell-based; conditions: NCI-H1650, 72 h; H1650, Human lung cancer, 3 days
Procedure: (§1) Human tumor cell lines different in type were suspended in mediums, seeded in individual wells of a multi-well plate and cultured. On the day after initiation of culture, serially diluted solutions of a compound were added. Culture was carried out for further 3 days. Cells were counted by a CellTiter-Glo (manufactured by Promega KK) in accordance with the protocol recommended by Promega KK. Cell viability was calculated in accordance with the equation shown below and the concentration (IC50 (nM)) of the compound at which 50% of cell growth is inhibited was obtained.
(§2) Cell viability (%)=(T/C)×100
(§3) T: Intensity of light emitted from a well containing a compound
(§4) C: Intensity of light emitted from a well containing no compound

H2122 = experiment: as above; format: cell-based; conditions: NCI-H2122, 72 h; H2122, Human lung cancer, 3 days
Procedure: as §1, §2, §3, §4

A549 = experiment: as above; format: cell-based; conditions: 72 h; A549, Human lung cancer, 3 days
Procedure: as §1, §2, §3, §4

H358 = experiment: as above; format: cell-based; conditions: NCI-H358, 72 h; H358, Human lung cancer, 3 days
Procedure: as §1, §2, §3, §4

DU145 = experiment: Test Example 3 growth suppression activity, CellTiter-Glo; format: cell-based; conditions: DU-145, 72 h; DU145, Human prostate cancer, 3 days
Procedure: as §1, with “(μM))” for “(nM))”
as §2, §3, §4

[5] = iv, 12 mg/kg, read-out: AUC 0-6 hr in terms of the administered Example compound

Structure (SMILES): Nc1ncnc2c1c(I)cn2[C@@H]1O[C@H](COP(=O)(O)O)[C@@H](O)[C@@H]1F [Example 2, ((2R,3R,4S,5R)-5-(4-amino-5-iodo-7H-pyrrolo[2,3-d]pyrimidin-7-yl)-4-fluoro-3-hydroxytetrahydrofuran-2-yl)methyl dihydrogen phosphate]
continuation of administration compared to Comparative Example 2-compound administration group ([1]; administration continued until weight loss 20% or more, Day 13 vs Day 6): continued longer
effect on body weight (BWC) ([1]; oral 14.4 mg/kg/day every day): mild
antitumor effect (IR based on RTV) ([1]; oral 14.4 mg/kg/day every day, final day of evaluation Day 13, compared with Comparative Example 2 12 mg/kg/day, Day 6): high antitumor effect
continuation of administration compared to Comparative Example 2-compound administration group ([2]; Day 15 vs Day 11 (Comparative Example 2 oral 12 mg/kg/day)): continued longer
effect on body weight (BWC) ([2]; osmotic pump 20 mg/kg/day for 14 days): low
hematological toxicity (lymphocytes, monocytes T/C) ([2]; osmotic pump 20 mg/kg/day for 14 days, Day 15): low
antitumor effect (RTV) ([2]; osmotic pump 20 mg/kg/day for 14 days, final day Day 15): remarkable antitumor effect (tumor regression was confirmed)
presence of prodrug in mouse (conversion into active compound) [3]: prodrug of the compound (I form) of Comparative Example 2

Structure (SMILES): Nc1ncnc2c1c(Br)cn2[C@@H]1O[C@H](COP(=O)(O)O)[C@@H](O)[C@@H]1F [Example 1, ((2R,3R,4S,5R)-5-(4-amino-5-bromo-7H-pyrrolo[2,3-d]pyrimidin-7-yl)-4-fluoro-3-hydroxytetrahydrofuran-2-yl)methyl dihydrogen phosphate]
presence of prodrug in mouse (conversion into active compound) [4]: prodrug of the compound (Br form) of Comparative Example 1
presence of prodrug in mouse (conversion into active compound) [3]: prodrug of the compound (Br form) of Comparative Example 1

Structure (SMILES): Nc1ncnc2c1c(Cl)cn2[C@@H]1O[C@H](COP(=O)(O)O)[C@@H](O)[C@@H]1F [Example 5, ((2R,3R,4S,5R)-5-(4-amino-5-chloro-7H-pyrrolo[2,3-d]pyrimidin-7-yl)-4-fluoro-3-hydroxytetrahydrofuran-2-yl)methyl dihydrogen phosphate]
presence of prodrug in mouse (conversion into active compound) [4]: prodrug of the compound (Cl form) of Comparative Example
presence of prodrug in mouse (conversion into active compound) [3]: prodrug of the compound (Cl form) of Comparative Example 3

IC50 (H1650): 11 nM
IC50 (H2122): 17 nM
IC50 (A549): 24 nM
IC50 (H358): 69 nM
IC50 (DU145): 90 nM
AUC(0-t) ([3]; male, Balb/cA, oral, 50 mg/kg (0.14 mmol/kg), 0.5% HPMC, mouse plasma, administered compound, read-out: AUC 0-6 hr): 20.2 µM·h
Structure (SMILES): Nc1ncnc2c1c(Br)cn2[C@@H]1O[C@H](CO)[C@@H](O)[C@@H]1F [Comparative Example 1, (2R,3R,4S,5R)-5-(4-amino-5-bromo-7H-pyrrolo[2,3-d]pyrimidin-7-yl)-4-fluoro-2-(hydroxymethyl) tetrahydrofuran-3-ol]

Structure (SMILES): Nc1ncnc2c1c(I)cn2[C@@H]1O[C@H](COP(=O)(O)O)[C@@H](O)[C@@H]1F [Disodium salt of Example 2, ((2R,3R,4S,5R)-5-(4-amino-5-iodo-7H-pyrrolo[2,3-d]pyrimidin-7-yl)-4-fluoro-3-hydroxytetrahydrofuran-2-yl)methyl dihydrogen phosphate]
AUC(0-t) [4, 5]: 0.64 µM·h

AUC(0-t) ([4]; intravenous, 11 mg/kg, read-out: AUC 0-6 hr in terms of Example 5): 0.08 µM·h
Structure (SMILES): Nc1ncnc2c1c(Cl)cn2[C@@H]1O[C@H](COP(=O)(O)O)[C@@H](O)[C@@H]1F [Disodium salt of Example 5, ((2R,3R,4S,5R)-5-(4-amino-5-chloro-7H-pyrrolo[2,3-d]pyrimidin-7-yl)-4-fluoro-3-hydroxytetrahydrofuran-2-yl)methyl dihydrogen phosphate]

AUC(0-t) ([4]; iv, 26 mg/kg, read-out: AUC 0-6 hr in terms of Example 1): 0.15 µM·h
Structure (SMILES): Nc1ncnc2c1c(Br)cn2[C@@H]1O[C@H](COP(=O)(O)O)[C@@H](O)[C@@H]1F [Disodium salt of Example 1, ((2R,3R,4S,5R)-5-(4-amino-5-bromo-7H-pyrrolo[2,3-d]pyrimidin-7-yl)-4-fluoro-3-hydroxytetrahydrofuran-2-yl)methyl dihydrogen phosphate]

Structure (SMILES): Nc1ncnc2c1c(I)cn2[C@@H]1O[C@H](COP(O)(O)=S)[C@@H](O)[C@@H]1F [Disodium salt of Example 3, O-(((2R,3R,4S,5R)-5-(4-amino-5-iodo-7H-pyrrolo[2,3-d]pyrimidin-7-yl)-4-fluoro-3-hydroxytetrahydrofuran-2-yl)methyl) O,O-dihydrogen phosphorothioate]
AUC(0-t) [4, 5]: 0.18 µM·h

AUC(0-t) [4, 5]: 9.35 µM·h
Structure (SMILES): Nc1ncnc2c1c(I)cn2[C@@H]1O[C@H](CO)C(OP(=O)(O)O)C1F (stereo partly drawn) [Disodium salt of Example 4, (2R,3R,4S,5R)-5-(4-amino-5-iodo-7H-pyrrolo[2,3-d]pyrimidin-7-yl)-4-fluoro-2-(hydroxymethyl) tetrahydrofuran-3-yl dihydrogen phosphate]
